Earlier results in patent publication US20040259834A1, “Therapeutic composition containing at least diflomotecan and capecitabine” (priority 2003, published 2004).

Assays:
[1] = tested on: various xenografts; details: various xenografts growing in nude mice
[2] = 7-membered β-hydroxylactone ring, more stable lactone form

plasma stability [2]: greater plasma stability
SMILES: CC[C@@]1(O)CC(=O)OCc2c1cc1n(c2=O)Cc2cc3cc(F)c(F)cc3nc2-1 [Diflomotecan]
activity against xenografts [1]: excellent activity
